Data set [1] relates to Fmr1 knockout (KO) or Wild Type (WT) mice. Put plainly: Contextual fear conditioning (freezing). Format: in vivo, mouse. Here is the method: (§1) Fmr1 knockout mice (KO2) mice (The Dutch-Belgium Fragile X Consortium, 1994), initially obtained from the Jackson Laboratory, and wild type (WT) littermates were generated on a C57BL/6J background and repeatedly backcrossed onto a C57BL/6J background for more than eight generations. The Fmr1 knockout mice were housed in groups of the same genotype in a temperature and humidity controlled room with a 12-h light-dark cycle (lights on from 7 am to 7 pm; testing was conducted during light phase). Room temperature and humidity were recorded continuously in the holding room while food and water were available ad libitum. Testing was conducted on healthy Fmr1 knockout mice and their wild type littermates (N=10 mice per treatment group) at 2 or 6 months of age during the behavioral experiments. Mice were housed in commercial plastic cages and experiments were conducted in line with the requirements of the UK Animals (Scientific Procedures) Act, 1986. All experiments were conducted with experimenters blind to genotype and drug treatment. Animals were allowed a minimum acclimatization period of one week prior to performing any experiment. No prophylactic or therapeutic treatment was administered during the acclimatization period.
(§2) In all cases, saline was used as a vehicle (control).
In the fear conditioning experiment, mice were placed into a novel environment (dark chamber) and received pairings of a cue and electric footshock (0.2 mA for 1 sec (Study 1) or 0.7 mA for 0.5 sec (Study 2)). […] Freezing time was defined as the time that the mice spent in immobile behavior, except for respiration. The data was expressed as the percentage of the test period. 24 hours after a training session, mice were tested for 5 min in the training chamber with no shock presentation and observed for freezing behavior.
(§3) Multivariate analysis of variance was employed to assess group differences across data. Repeated measures ANOVA were performed for behavioral data. Statistically significant effects in each ANOVA were followed with post hoc comparisons, using the Newman-Keuls test (Study 1) or the Tukey test (Study 2). A p value of less than 0.05 was considered significant.

For data set [2] the test system is unchanged. Put plainly: Social recognition memory (Trial 2, social memory ratio). Format: in vivo, mouse. Conditions: for social memory, duration of sniffing: 2 months old, Study 2; for duration of sniffing, Trial 2: 150 mg/kg ip 7 days. Here is the method: as §1, §2
Mice were placed in a test arena/cage of the same order of magnitude in size as the adult's home cage (40×23×12 cm cage, with a Perspex lid to facilitate viewing the mice) with fresh wood chippings on the floor. A background mouse odor was created by putting in some non-experimental mice into the apparatus prior to testing. Mice were transferred to the experimental room 10-15 min prior to testing. A test subject and a juvenile were placed simultaneously into the test cage. The total duration and number of bouts of social investigation, defined as sniffing and close following (<2 cm from the tail) of the stimulus juvenile by the tested mouse, was assessed for 3 min. 30 min later, the test was repeated using the same stimulus juvenile. Data parameters collected were the total duration and total number of bouts of sniffing for the acquisition and recognition. A social memory ratio was derived, defined as trial 2/trial 1+2. Therefore, no memory (e.g. 20/(20+20)=0.5 and memory (e.g. 10/(20+10)=<0.5.
as §3
Social memory ratio was defined as the duration of sniffing bouts: trial 2/trial 1+2. Therefore, an example of no memory was (e.g. 20/(20+20)=0.5, while an example of memory was (e.g. 10/(20+10)=<0.5.

The subject of another data set is Akt. The data set can be described thus: Lymphocyte pAkt (flow cytometry). It counts as in vivo, mouse. The following applies: Fmr1 KO mice, 2 months old. Here is the method:
as §2
The Ras-Mek-ERK and PI3K-Akt-mToR signaling pathways are involved in mediating activity dependent alterations in gene transcription underlying changes in synaptic plasticity (Klann and Dever, 2004). Phosphorylated ERK and Akt protein expression was measured by western blot analysis as previously described by Lopez Verrilli (Lopez Verrilli et al., 2009). The antibodies employed were anti-phosphospecific antibodies against Akt (1/1000) and kinase (ERK) 1/2 (1/2000) (Cell Signaling Technology, Danvers, Mass., USA). The antibody against phospho-ERK detects phosphorylation at phospho-ERK 1/2 (Thr202/Tyr204) whereas the antibody against phospho-Akt detects phosphorylation at phospho-Akt (Thr308). Total Akt and ERK 1/2 protein content and phosphorylated ERK and Akt were evaluated by blotting membranes with antiphospho-Akt (1/1000) and antiphospho-ERK antibodies (1/2000) (Cell Signaling Technology, Danvers, Mass., USA). Akt or ERK phosphorylation was normalized to protein content in the same sample and expressed as % of change with respect to basal conditions, considering basal levels as 100%. Protein loading was evaluated by stripping and re-blotting membranes with j-actin antibody (1/1000) (Sigma-Aldrich, St. Louis, Mo., USA). Phosphorylated ERK and Akt protein expression in blood lymphocytes was measured by flow cytometry. For lymphocyte biomarker determinations, a FACStar plus (Becton Dickinson) was used with the excitation laser tuned at 488 nm and green fluorescence from FITC (GST) was collected through a 515-545 nm bandpass filter. The mean FITC fluorescence Intensity was calculated in relation to the fluorescence of reference cells. The mean cellular fluorescence intensity (MFI) is directly proportional to the mean number of Ab molecules bound per cell.
(In general: A flow cytometer gives signals particle by particle.)

For data set [3] the following is noted: cited from earlier work.
Where [4] appears, read: Fmr1 KO mice, 6 months old, 150 mg/kg ip once daily 7 days.

Entries after “also recorded” stand apart in the source; their conditions may differ.

`Cc1ncc(CO)c(CO)c1O.O=C1CC[C@@H](C(=O)O)N1` [metadoxine, pyridoxol L,2-pyrrolidon-5 carboxylate]: the “contextual fear conditioning, freezing (learning deficit)” value is reported as “complete reversal” in data set [1] (Fmr1 KO mice aged six months, 150 mg/kg ip once daily 7 days, Study 2); “partial reversal” in data set [1] (Fmr1 KO mice, 2 months old, 100 mg/kg ip once daily 7 days, Study 1); “reversed the learning deficit effect in Fmr1 knockout mice, this reversal being partial; also recorded: fully rescued” in data set [1] (Fmr1 KO mice, 2 months old, 150 mg/kg ip once daily 7 days, Study 1, 150 mg/kg); “completely reversed; also recorded: fully rescued” in data set [1] (Fmr1 KO mice, 2 months old, 200 mg/kg ip once daily 7 days, Study 1, 200 mg/kg). The “contextual fear conditioning, freezing behavior” value in data set [1] (Fmr1 KO mice, 2 months old, 150 mg/kg ip once daily 7 days, Study 2) is “the reversal was complete”; in data set [1] (Fmr1 KO mice, 2 months old, 150 mg/kg oral once daily 7 days, Study 2) it was “the reversal was complete”; in data set [1] (Fmr1 KO mice, 2 months old, 300 mg/kg oral once daily 7 days, Study 2), “the reversal was complete”; in data set [1] (WT mice, 2 months old, 150 mg/kg ip or 150 and 300 mg/kg oral, 7 days, Study 2), “No effects were seen”. Besides, the “contextual fear conditioning, freezing” value in data set [1] (WT mice, 2 months old, 100, 150 or 200 mg/kg ip once daily 7 days, Study 1) is on record as “no effect on WT mice”. Moreover, the “social memory, duration of sniffing” value is “reversal was complete” in data set [2] (Fmr1 KO mice, 150 mg/kg ip once daily 7 days); “reversal was complete” in data set [2] (Fmr1 KO mice, 150 mg/kg oral once daily 7 days); “reversal was complete” in data set [2] (Fmr1 KO mice, 300 mg/kg oral once daily 7 days); “without effect on WT mice” in data set [2] (WT mice, any dose (150 mg/kg ip, 150 and 300 mg/kg oral)). Besides, the “social memory, duration of sniffing (Trial 2)” value in data set [2] (setting [4]) was “reversal by metadoxine was complete”. Besides, in data set [2] (setting [4]), the “social memory, number of sniffing bouts (Trial 2)” value is recorded as “reversal for number of sniffing bouts was partial”. For the same compound, the “duration of sniffing, Trial 2” value in data set [2] (KO-M: Fmr1 KO mice, 6 months old) is listed as 12.7; in data set [2] (WT-M: WT mice, 6 months old) it was 12.5. In addition, the “social memory, sniffing bouts and duration (Trial 2)” value in data set [2] (WT mice, 6 months old, 150 mg/kg ip once daily 7 days) is “without effect on WT mice”. Further, the “lymphocyte pAkt” value in the data set with Akt (150 mg/kg ip once daily 7 days), with Akt (150 mg/kg oral once daily 7 days) and in the data set on Akt (300 mg/kg oral once daily 7 days) was “normalized overactivated Akt” each time. Further, the mean half life result in data set [3] (human serum, Lu Yuan et al. 2007) was “about 0.8 hour”. The “half-life in human serum” value in data set [3] (human serum, no appreciable differences between oral and intravenous administration) was 40 to 60 min. The oral bioavailability in data set [3] (oral) is on record as 60-80%.
